According to US4490364A, “CCK Agonists II” (The Salk Institute for Biological Studies, priority 1983, dated 1984):
Non-standard residues stand in square brackets, D forms with d. Residues, ends and D or L forms follow the SMILES beside them. sY = N[C@@H](Cc1ccc(OS(=O)(=O)O)cc1)C(=O)O

Key:
mouse = experiment: anticonvulsive effect against picrotoxin-induced seizures in the mouse; assay type: in vivo; conditions: peptide about 0.8 micromoles per kg parenterally, then picrotoxin i.p., relative to CCK(1-8) = 100%
Experimental: The anticonvulsive effect is measured by the method as generally described in The European J. of Pharm., 65, 297 (1980). More specifically, a mouse is first injected parenterally with the peptide being tested with a single dose equal to about 0.8 micromoles per kilogram of body weight. Thereafter, picrotoxin is injected i.p. in an amount equal to about […] of body weight. The parameters that are measured: time until first tremor, time until first clonic seizure, time until first tonic seizure and time of latentia until death, measured from the time of injection of the picrotoxin.

[1] = Ondetti and Pluscec; cited from earlier work
[2] = tested on: secretion of gastric acid; conditions: i.v. at low dosages; cited from earlier work
muscle sphincter Oddii = conditions: cited from earlier work
[3] = tested on: isolated strips of rabbit gall bladder; experiment: contraction of the gall bladder (CCK-activity), isolated strips of rabbit gall bladder; assay type: cell-based
Experimental: (§1) To determine the effectiveness of the various synthetic peptides, they are tested for their ability to stimulate the contraction of the gall bladder, for gastrinic activity in the stomach and for their anticonvulsive effect. Certain well known tests are carried out, and the results are measured and compared to the activity of CCK(1-8). Some of the results are given as a percentage relative to the activity of CCK(1-8). The ability to stimulate the contraction of the gall bladder is measured using a modified method of Amer and Becvar, described in J. Endocrinology, 43, 637 (1969) and employing isolated strips of rabbit gall bladder.

perfused rat stomach = experiment: gastrinic activity on perfused rat stomach, conductometric titration of HCl liberated after iv administration; assay type: in vivo
Experimental: as §1

Row | Compound | Delay until first tonic seizure (efficacy) (mouse) [%] | Delay until time of death (efficacy) (mouse) [%] | activity compared with the complete molecule of cholecystokinin-pancreozymin [1] | gastrinic activity in causing secretion of gastric acid [2] | action on the muscle sphincter Oddii (muscle sphincter Oddii) | CCK-activity % /CCK (1-8) 100%/ ([3]; relative to CCK(1-8) = 100%, contraction of isolated rabbit gall bladder strips) [%] | gastrinic activity % /Pentagastrin 100%/ (perfused rat stomach; relative to pentagastrin = 100%, perfused rat stomach, iv) [%] | CCK activity compared with CCK(1-8) ([3]; result in words) | gastrinic activity (perfused rat stomach; result in words)
1 | CSCC[C@H](NC(=O)[C@H](Cc1ccc(OS(=O)(=O)O)cc1)NC(=O)[C@@H](N)CC(=O)O)C(=O)NCC(=O)N[C@@H](Cc1c[nH]c2ccccc12)C(=O)N[C@@H](CCSC)C(=O)N[C@@H](CC(=O)O)C(=O)N[C@@H](Cc1ccccc1)C(N)=O [CCK (1-8)] | 100 | 100 | considerably higher activity than the complete molecule of cholecystokinin-pancreozymin | some gastrinic activity | strong relaxing action | – | – | – | –
2 | CSCC[C@H](NC(=O)[C@H](Cc1c[nH]c2ccccc12)NC(=O)[C@@H](C)NC(=O)[C@H](CCSC)NC(=O)[C@H](Cc1ccc(OS(=O)(=O)O)cc1)NC(C)=O)C(=O)N[C@@H](CC(=O)O)C(=O)N[C@@H](Cc1ccccc1)C(N)=O [[D-Ala^4]-Ac-CCK (2-8), Ac--Tyr(OSO3 Na)--Met--D--Ala--Trp--Met--Asp--Phe--NH2] (Ac-[sY]M[dA]WMDF-NH2) | 100 | 126 | – | – | – | 40 | 0 | – | –
3 | H--Asp--Tyr(OSO3 Na)--Nle--Gly--Trp--Nle--Hyp(OSO3 Na)--Tyr(OCH3)--NH2 | – | – | – | – | – | – | – | CCK activity significantly greater than CCK(1-8) | substantially no gastrinic activity
